{"source": "patent US8956641B2", "about": "“Alpha adrenergic receptor agonists for treatment of inflammatory diseases” (Warsaw Orthopedic, Inc., priority 2008, dated 2015)", "tested_on": "Rat Chronic Constriction Injury Model (neuropathic pain)", "settings": "clonidine subcutaneously 0.02 mg/kg/day; FIG. 4", "description": "The inventors evaluated the efficacy of a five Month Clonidine/Polymer Drug Depot in the Rat Chronic Constriction Injury Model. The animal model was the Bennett Model (Wistar rat). The purpose: To determine whether a five month polymer clonidine-eluting depot can improve pain associated behavioral responses in a rat model of neuropathic pain.\nExperimental Design: Four loose chromic gut ligatures, 1 mm apart, were tied around the common sciatic nerve at mid-thigh. Each animal received treatment of test or control article-according to the dosing described in Table 5.\nThe inventors have conducted the present study for a period of 64 days and have employed the following two tests: (1) the Hargreaves test; and (2) the von Frey test. The Hargreaves Tests of Thermal Hyperalgesia were conducted on days 7, 14, 21, 28, 35, 42, 49, 56 and 63. The von Frey monofilament test of mechanical allodynia (performed the day following Thermal testing) were conducted on days-8, 15, 22, 29, 36, 43, 50, 57 and 64.", "data": [{"smiles": "Clc1cccc(Cl)c1N=C1NCCN1", "note": "[clonidine, 2,6-dichloro-N2-imidazolidinyldenebenzenamine]", "values": [{"measurement": "pain behavioral response (percentage of baseline) for mechanical allodynia compared to unloaded polymer depots", "result": "reduced the behavioral response"}]}]}
